The Km is the concentration of substrate that gives half-maximal velocity. Broadly, the Ki is the dissociation constant of the complex between target and ligand, obtained from inhibition or displacement.

Holding throughout (type): biochemical
Experiment [1] deals with T1, Vibrio alkaline phosphatase (VAP) (Vibrio sp. G15-21, UniProt Q93P54, K441L/Y442F).
T1 sequence (Q93P54 20-521 K441L/Y442F): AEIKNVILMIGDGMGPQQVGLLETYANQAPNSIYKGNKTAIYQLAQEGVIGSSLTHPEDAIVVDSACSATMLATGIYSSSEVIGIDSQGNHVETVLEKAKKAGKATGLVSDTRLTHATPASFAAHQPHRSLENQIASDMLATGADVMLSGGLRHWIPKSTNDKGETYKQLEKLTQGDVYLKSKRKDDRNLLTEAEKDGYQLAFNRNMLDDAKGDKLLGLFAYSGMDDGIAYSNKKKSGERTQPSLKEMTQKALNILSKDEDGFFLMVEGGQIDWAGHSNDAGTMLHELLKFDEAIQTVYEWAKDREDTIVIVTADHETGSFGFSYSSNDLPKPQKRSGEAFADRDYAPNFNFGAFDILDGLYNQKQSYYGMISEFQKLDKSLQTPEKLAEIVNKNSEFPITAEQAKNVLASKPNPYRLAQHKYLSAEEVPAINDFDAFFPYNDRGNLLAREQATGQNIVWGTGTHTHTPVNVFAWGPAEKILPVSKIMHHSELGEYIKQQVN
As to the kind of experiment: steady-state pNPP hydrolysis at […] nm, Michaelis-Menten fit. The following applies: pH 8.0, 100 mM Tris-HCl, 1 mM MgCl2, 10 °C, no added NaCl.

The target in experiment [2] is T2, Vibrio alkaline phosphatase (VAP) (Vibrio sp. G15-21, UniProt Q93P54, Y241P).
T2 sequence (Q93P54 20-521 Y241P): T1 sequence (Q93P54 20-521 K441L/Y442F)
Described as above. Conditions: pH 8.0, 100 mM Tris-HCl, 1 mM MgCl2, 10 °C, no added NaCl.

The target in experiment [3] is T3, Vibrio alkaline phosphatase (VAP) (Vibrio sp. G15-21, UniProt Q93P54, A240D).
T3 sequence (Q93P54 20-521 A240D): T1 sequence (Q93P54 20-521 K441L/Y442F)
The description is as above. The following applies: pH 8.0, 100 mM Tris-HCl, 1 mM MgCl2, 10 °C, no added NaCl.

In experiment [4] the target is T4, Vibrio alkaline phosphatase (VAP) (Vibrio sp. G15-21, UniProt Q93P54, K441E).
T4 sequence (Q93P54 20-521 K441E): T1 sequence (Q93P54 20-521 K441L/Y442F)
Described as above. The following applies: pH 8.0, 100 mM Tris-HCl, 1 mM MgCl2, 10 °C, no added NaCl.

Experiment [5] has as its target T5, Vibrio alkaline phosphatase (VAP) (Vibrio sp. G15-21, UniProt Q93P54, K441L).
T5 sequence (Q93P54 20-521 K441L): T1 sequence (Q93P54 20-521 K441L/Y442F)
Described as above. The following applies: pH 8.0, 100 mM Tris-HCl, 1 mM MgCl2, 10 °C, no added NaCl.

Experiment [6] addresses T6, Vibrio alkaline phosphatase (VAP) (Vibrio sp. G15-21, UniProt Q93P54).
T6 sequence (Q93P54 20-521): T1 sequence (Q93P54 20-521 K441L/Y442F)
Description: steady-state pNPP hydrolysis at […] nm, […] HEPES.

For the compound `O=[N+]([O-])c1ccc(OP(=O)(O)O)cc1` [pNPP], the Km is 8.8 ± 2.4 µM in experiment [1]; 4.9 ± 3.4 µM in experiment [2]; 12.8 ± 3.8 µM in experiment [3]; 7 ± 1.6 µM in experiment [4]; 6.6 ± 3.1 µM in experiment [5].

In experiment [6], `O=S(=O)(O)CCN1CCN(CCO)CC1` [HEPES] showed an inhibitory constant (Ki) of 21.3 mM.

The values are drawn from doi:10.1101/2022.07.20.500776v2 (biorxiv, 2022).
